# Patent US9987293B2, “Method for treating chronic lymphocytic leukemia” (BIONOMICS LIMITED, priority 2014, dated 2018)
# Legend:
# CLL cells on L4.5 stroma = assay: Apoptosis of CLL cells co-incubated on CD154+ L4.5 stroma; format: cell-based, human; conditions: for sensitivity of stroma co-incubated CLL cells: co-incubation on stroma for 24 h
# Procedure: (§1) CLL cells were obtained from consented patients at the Norris Cotton Cancer Center. Cells were purified by centrifugation in Ficoll-Paque PLUS from 10 ml, of blood. Lymphocytes were plated in RPMI 1640 plus 10% serum at 1×10^6 cells/mL after three washes in PBS+2 mmol/L EDTA. Cells were either incubated immediately with reagents or after 24 h incubation with confluent layers of CD154+ stromal cells (L 4.5) at a ratio of 5:1.
# (§2) Cells were incubated for 10 min with 2 μg/mL. Hoechst 33342 at 37° C. and visualized with a fluorescent microscope. At least 200 cells were scored for each sample. The percentage of cells with condensed chromatin was recorded.
# The experiments above have shown that CLL cells are usually very sensitive to EX2. However, these cells were isolated from peripheral blood, and the real problem to curing CLL is to be able to kill cells that reside in the lymph node or […] marrow niche. To mimic this niche, we have used L4.5 cells that express CD154. […] However, when ABT-199 and EX2 were combined, marked apoptosis was again observed. For example, 100 nM ABT-199 alone induced about 10% apoptosis, whereas when combined with 1 μM EX2, >60% apoptosis was observed within 6 h. The combination of 1 μM EX2 and 1 μM ABT-199 induced about 80% apoptosis. This patient's cells appeared to be more resistant than those summarized in FIG. 2 which may therefore understate the impact of this combination. In cells from another patient that were more sensitive to EX2 alone we observed greater sensitization to ABT-199; these cells were not tested on stroma.
# [1] = system: normal peripheral lymphocytes; assay: Toxicity to normal peripheral lymphocytes (PARP cleavage, chromatin condensation, pJNK, Noxa); format: cell-based, human
# Procedure: as §2
# (§3) Cells were lysed in urea sample buffer [4 mol/L urea, 10% β-mercaptoethanol, 6% SDS, […] (pH 6.8), 0.01% bromphenol blue, and protease/phosphatase inhibitor cocktail] and boiled for 5 min. Proteins were subsequently separated by SDS-PAGE (10 or 15%) and transferred to polyvinylidene difluoride membrane (Millipore). Membranes were blocked with 5% nonfat milk in TBS and 0.05% Tween 20, and were probed with the appropriate primary antibody overnight. Subsequently, membranes were washed in […] and 0.05% Tween 20, and then incubated with secondary antibody conjugated to horseradish peroxidase. Proteins were visualized by enhanced chemiluminescence (Amersham). Actin was used as a loading control in Western blots.
# To test the potential toxicity of EX2, normal peripheral lymphocytes were isolated from a healthy volunteer and incubated with EX2 alone or in combination with ABT-199.
# CLL cells [2] = assay: Chromatin condensation (Hoechst 33342) apoptosis in freshly isolated CLL cells; format: cell-based, human; conditions: 6 h
# Procedure: as §1, §2
# (§4) To determine whether EX2 induces apoptosis, freshly isolated CLL cells were incubated in media containing 0-1 μM EX2. Chromatin condensation was scored as a classic marker of apoptosis. Apoptosis was observed following incubation of cells with 10-100 nM EX2 and this also correlated with the cleavage of PARP (FIG. 1). Protein lysates were also assessed for both pJNK and NOXA, both of which were increased by the same concentrations of EX2.
# CLL cells [3] = assay: Immunoblot of PARP cleavage, pJNK and Noxa in CLL cells; format: cell-based, human
# Procedure: as §1, §3, §4
# Jeko-1 cells = assay: Kinetics of apoptosis in Jeko-1 cells (Western blot); format: cell-based; conditions: Jeko-1 cells (FIG. 7)
# Procedure: as §3
# It was noted that in many of these experiments, PARP cleavage was incomplete at 6 h. To determine whether greater apoptosis occurred at later time points, we incubated cells for up to 24 h with EX2 (FIG. 6).
compound,measurement,setting,value
"CC1(C)CCC(CN2CCN(c3ccc(C(=O)NS(=O)(=O)c4ccc(NCC5CCOCC5)c([N+](=O)[O-])c4)c(Oc4cnc5[nH]ccc5c4)c3)CC2)=C(c2ccc(Cl)cc2)C1 [ABT-199, reference compound]","apoptosis, 100 nM alone","CLL cells on L4.5 stroma; CLL cells on stroma, 100 nM ABT-199 alone",about 10%
same,sensitivity of stroma co-incubated CLL cells,CLL cells on L4.5 stroma,marked resistance
same,PARP cleavage in normal lymphocytes,"[1]; healthy volunteer cells, ABT-199 alone",slight PARP cleavage
same,chromatin condensation in normal lymphocytes,"[1]; healthy volunteer cells, ABT-199 with or without EX2",no chromatin condensation was observed
"CCc1cnn2c(NCc3ccc[n+]([O-])c3)cc(N3CCCC[C@H]3CCO)nc12 [Dinaciclib, reference compound]",apoptosis in normal leukocytes,"[1]; healthy volunteer cells, dinaciclib alone",induced some apoptosis
"COc1cc(C(=O)c2c(C)oc3c(OP(=O)([O-])[O-])c(OC)ccc23)cc(OC)c1OC.[Na+].[Na+] [EX2, Disodium 6-methoxy-2-methyl-3-(3,4,5-trimethoxybenzoyl)benzofuran-7-yl phosphate]",concentration at which apoptosis (chromatin condensation) was observed,"CLL cells [2]; freshly isolated CLL cells, 0-1 μM, correlated with PARP cleavage",10 to 100 nM
same,relative potency as inducer of apoptosis,"CLL cells [2]; versus vinblastine and combretastatin A4, chromatin condensation and PARP cleavage",more potent inducer of apoptosis
same,time to activation of JNK,CLL cells [3]; CLL cells,less than one
same,PARP cleavage over time,"CLL cells [3]; CLL cells incubated up to 24 h (FIG. 6), by 24 h",almost total cleavage of PARP
same,PARP cleavage in presence of JNK inhibitor VIII,"CLL cells [3]; CLL cells, 0-1 μM EX2 with JNK inhibitor VIII",completely prevented
same,lowest concentration at which apoptosis began to appear,"CLL cells [3]; CLL cells, 6 h, FIG. 2A, pJNK and Noxa correlated",5 nM
same,JNK activation and PARP cleavage after 1 h pulse treatment,"CLL cells [3]; CLL cells, five hours after removing EX2, versus continuous incubation",still observed albeit slightly less
same,pJNK and NOXA levels,"CLL cells [3]; protein lysates of CLL cells, same concentrations (10-100 nM)",increased
same,"apoptosis, single agent at 1 μM","CLL cells on L4.5 stroma; CLL cells co-cultured on L4.5 stroma 24 h, 1 μM",no apoptosis observed
same,"apoptosis, combination of 1 μM EX2 and 1 μM ABT-199",CLL cells on L4.5 stroma; CLL cells on stroma,about 80%
same,"apoptosis, 1 μM EX2 combined with 100 nM ABT-199","CLL cells on L4.5 stroma; CLL cells on stroma, within 6 h",> 60%
same,sensitivity of stroma co-incubated CLL cells,CLL cells on L4.5 stroma,markedly resistant
same,effect of EX2 on ABT-199-induced PARP cleavage in normal lymphocytes,[1]; EX2 combined with ABT-199,not increased
same,effect of EX2 on dinaciclib-induced apoptosis in normal leukocytes,[1]; EX2 combined with dinaciclib,not increased
same,Noxa induction in normal lymphocytes,[1]; healthy volunteer cells,no Noxa was induced
same,pJNK in normal lymphocytes,[1]; healthy volunteer cells,activated
same,PARP cleavage or chromatin condensation in normal lymphocytes,"[1]; healthy volunteer cells, single agent, 6 h",no significant PARP cleavage or chromatin condensation
same,time by which apoptosis was complete,Jeko-1 cells,up to 24 h
